ChEMBL document CHEMBL1201862, “PubChem BioAssay data set” (2004)
pIC50: −log10 of the molar value. The source made the active and inactive calls.

How the values were obtained:
[1] = toxicity toward HepG2 liver cells – cell-based, plate reader, cherry-pick, antagonist series, cytotoxicity control, dose response (AID 743416); type: functional
[2] = viability loss in HEK293 cells – cell-based, plate reader, cherry-picked samples, cytotoxicity control, dose response (AID 743446); type: functional
[3] = target: T1, Microphthalmia-associated transcription factor (Homo sapiens, UniProt O75030); assay: reducers of TRPM1 reporter luminescence, concentration series – cell-based, SK-MEL-5, cherry-picked, set 3, MITF inhibitor project, dose response (AID 493073); type: functional;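 also: SK-MEL-5 melanoma cells with luciferase driven by the MITF target TRPM1 promoter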
T1 sequence (O75030 whole entry): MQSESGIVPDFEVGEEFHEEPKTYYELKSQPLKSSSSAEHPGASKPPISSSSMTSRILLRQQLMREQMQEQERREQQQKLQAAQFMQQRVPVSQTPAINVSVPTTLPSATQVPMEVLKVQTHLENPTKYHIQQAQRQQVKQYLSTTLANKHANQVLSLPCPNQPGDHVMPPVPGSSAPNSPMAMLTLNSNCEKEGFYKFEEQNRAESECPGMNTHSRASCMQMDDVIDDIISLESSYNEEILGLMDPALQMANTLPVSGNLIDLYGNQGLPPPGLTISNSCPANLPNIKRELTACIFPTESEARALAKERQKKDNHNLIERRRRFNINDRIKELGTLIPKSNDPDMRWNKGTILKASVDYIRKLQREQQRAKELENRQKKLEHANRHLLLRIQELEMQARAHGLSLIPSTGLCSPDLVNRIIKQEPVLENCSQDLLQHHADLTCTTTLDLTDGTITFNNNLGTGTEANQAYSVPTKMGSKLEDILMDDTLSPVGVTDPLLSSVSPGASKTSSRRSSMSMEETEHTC

[4] = blockade of melanocortin 4 receptor signaling – cell-based, plate reader, cherry pick, counter-screen for LGR2 antagonist project, dose response (AID 743444); type: functional;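 also: transfected HEK 293 cells stimulated with alpha-MSH peptide; potency of inhibitors of the alpha-MSH evoked signal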
Paired box protein Pax-8 = Paired box protein Pax-8 (Homo sapiens, UniProt Q06710); assay: PAX8 transcriptional activity inhibition in RMG-I – RMG-I cells, luciferase, cherry-pick, dose response (AID 687027); type: functional, cell-based;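 also: luciferase reporter driven by Pax8 target thyroperoxidase promoter measured by SteadyGlo luminescence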
Paired box protein Pax-8, sequence (Q06710 whole entry): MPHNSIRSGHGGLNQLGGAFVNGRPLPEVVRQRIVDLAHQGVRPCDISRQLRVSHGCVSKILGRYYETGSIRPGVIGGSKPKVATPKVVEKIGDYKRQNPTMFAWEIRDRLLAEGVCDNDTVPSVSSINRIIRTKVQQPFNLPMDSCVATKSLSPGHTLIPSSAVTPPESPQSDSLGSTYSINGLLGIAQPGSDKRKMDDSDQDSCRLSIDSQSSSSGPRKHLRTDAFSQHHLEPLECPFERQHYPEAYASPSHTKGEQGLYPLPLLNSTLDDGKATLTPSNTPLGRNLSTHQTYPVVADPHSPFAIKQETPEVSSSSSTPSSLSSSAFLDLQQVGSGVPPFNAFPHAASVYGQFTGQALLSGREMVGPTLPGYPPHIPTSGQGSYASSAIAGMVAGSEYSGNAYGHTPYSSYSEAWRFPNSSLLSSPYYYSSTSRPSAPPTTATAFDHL

[5] = target: Sphingosine 1-phosphate receptor 1 (Homo sapiens, UniProt P21453); type: functional;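 also: Tango beta-arrestin reporter U2OS cells stimulated with S1P near its EC80; inhibitor potency meaning antagonism of receptor activation by the natural agonist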
Sphingosine 1-phosphate receptor 1, sequence (P21453 whole entry): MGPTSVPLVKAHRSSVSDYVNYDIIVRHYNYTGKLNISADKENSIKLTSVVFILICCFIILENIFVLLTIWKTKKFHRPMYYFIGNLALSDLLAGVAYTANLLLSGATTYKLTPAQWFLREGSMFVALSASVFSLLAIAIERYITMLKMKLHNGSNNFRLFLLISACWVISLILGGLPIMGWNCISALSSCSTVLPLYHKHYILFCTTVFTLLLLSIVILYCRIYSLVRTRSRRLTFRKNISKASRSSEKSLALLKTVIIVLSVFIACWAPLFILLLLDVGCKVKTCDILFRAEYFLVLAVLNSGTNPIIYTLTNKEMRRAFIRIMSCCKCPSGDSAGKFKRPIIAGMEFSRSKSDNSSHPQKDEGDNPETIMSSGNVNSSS

[6] = A549 cell cytotoxicity, dose response, cytotoxicity control, plate reader, cherry-pick, antagonist series (AID 743412); type: functional, cell-based
[7] = reduced cellular PGC1a acetyl-lysine signal – cell-based, cherry-picked samples, dose response (AID 720514); type: functional;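 also: potency may reflect raised or lowered acetylation signal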
[8] = Trypanosoma cruzi growth suppression in host cells – NIH3T3 host cells, beta-gal luminescence, confirmation (AID 2044); type: functional, cell-based;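 also: intracellular parasites grown in NIH/3T3 mouse fibroblasts as host cells; luminescent beta-galactosidase reporter signal from transgenic T. cruzi replicating inside host cells; inhibitors lower the luminescence signal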
[9] = NIH3T3 cell viability loss – ATP luminescence, mouse fibroblasts, counter-screen, dose response (AID 2010); type: functional, cell-based;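 also: cells exposed to compound for about 90 hours before reading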
[10] = target: Sphingosine 1-phosphate receptor 4 (Homo sapiens, UniProt O95977); assay: Fluorescence dose response cell-based high throughput screening assay for antagonists of the Sphingosine 1-Phosphate Receptor 4 (S1P4). [Related pubchem assays: 1524 (Confirmation in triplicates.), 1510 (Primary screen.)]; type: functional
Sphingosine 1-phosphate receptor 4, sequence (O95977 whole entry): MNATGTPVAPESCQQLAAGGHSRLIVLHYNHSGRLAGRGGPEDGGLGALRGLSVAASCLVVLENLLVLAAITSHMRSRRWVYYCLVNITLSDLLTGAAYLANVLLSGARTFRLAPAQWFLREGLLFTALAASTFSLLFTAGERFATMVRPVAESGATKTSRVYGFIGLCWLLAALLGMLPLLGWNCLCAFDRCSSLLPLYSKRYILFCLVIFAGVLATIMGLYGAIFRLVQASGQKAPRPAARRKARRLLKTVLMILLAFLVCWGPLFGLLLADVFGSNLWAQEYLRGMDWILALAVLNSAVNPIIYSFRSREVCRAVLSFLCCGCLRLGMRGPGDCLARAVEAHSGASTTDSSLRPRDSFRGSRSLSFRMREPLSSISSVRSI

[11] = blockers of bursicon-stimulated LGR2 cAMP reporter – cell-based, HEK293, CRE-luciferase reporter, cherry pick, set 2, dose response (AID 743343); type: functional;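 also: transfected cells were stimulated with diluted bursicon conditioned medium after compound addition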
NS3 = NS3 (Hepatitis C virus, UniProt A3EZJ3); assay: PubChem AID 2173; set-up: species or system Hepacivirus hominis
NS3, sequence (A3EZJ3 whole entry): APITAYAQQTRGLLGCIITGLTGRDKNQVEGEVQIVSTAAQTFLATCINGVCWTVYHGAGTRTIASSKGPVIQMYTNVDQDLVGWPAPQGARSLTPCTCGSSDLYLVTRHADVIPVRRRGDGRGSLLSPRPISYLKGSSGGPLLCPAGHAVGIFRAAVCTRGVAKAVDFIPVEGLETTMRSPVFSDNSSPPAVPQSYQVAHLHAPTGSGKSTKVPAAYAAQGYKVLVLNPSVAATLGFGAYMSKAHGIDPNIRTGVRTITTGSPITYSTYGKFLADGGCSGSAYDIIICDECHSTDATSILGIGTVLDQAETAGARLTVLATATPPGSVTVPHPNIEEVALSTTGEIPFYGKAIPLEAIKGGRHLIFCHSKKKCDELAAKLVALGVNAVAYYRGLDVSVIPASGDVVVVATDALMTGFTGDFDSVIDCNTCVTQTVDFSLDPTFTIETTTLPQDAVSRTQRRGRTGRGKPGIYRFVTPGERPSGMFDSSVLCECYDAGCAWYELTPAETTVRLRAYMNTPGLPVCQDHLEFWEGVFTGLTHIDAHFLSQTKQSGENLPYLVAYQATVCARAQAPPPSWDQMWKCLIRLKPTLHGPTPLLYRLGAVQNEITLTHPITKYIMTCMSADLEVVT

[12] = target: T2, Heat shock factor protein 1 (Mus musculus, UniProt P38532); assay: enhancement of HSF1-driven luciferase signal – cell-based, NIH3T3, luminescence, dose retest, confirmation (AID 435004); type: functional;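 also: stress induced by proteasome inhibitor MG132 added 30 min after compound; luciferase reporter driven by HSF1 response element in NIH3T3 cells; actives raise luminescence as potentiators of the MG132 stress response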
T2 sequence (P38532 whole entry): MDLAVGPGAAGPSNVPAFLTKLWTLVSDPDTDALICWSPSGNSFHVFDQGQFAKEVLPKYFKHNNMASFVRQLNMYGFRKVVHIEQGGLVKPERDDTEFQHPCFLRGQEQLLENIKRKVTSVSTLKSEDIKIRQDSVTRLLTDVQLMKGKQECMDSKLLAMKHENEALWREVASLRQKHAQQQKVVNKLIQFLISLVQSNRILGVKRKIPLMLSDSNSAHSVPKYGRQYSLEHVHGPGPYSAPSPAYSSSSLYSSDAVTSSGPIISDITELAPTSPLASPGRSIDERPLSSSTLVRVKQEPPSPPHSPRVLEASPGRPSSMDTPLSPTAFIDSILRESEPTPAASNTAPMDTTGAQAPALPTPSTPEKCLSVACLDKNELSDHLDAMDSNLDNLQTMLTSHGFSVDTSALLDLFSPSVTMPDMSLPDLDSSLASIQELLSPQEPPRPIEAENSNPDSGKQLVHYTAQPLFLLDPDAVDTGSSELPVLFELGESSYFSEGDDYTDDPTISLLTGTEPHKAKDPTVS

[13] = target: T3, Corticotropin-releasing factor receptor 2/Corticotropin-releasing factor-binding protein (Homo sapiens, UniProt P24387+Q13324); assay: activators of CRF receptor 2 with binding protein – uHTS hits, confirmation (AID 602473); type: functional; details: read-out: EC50_Mean
T3 sequence (Q13324 whole entry): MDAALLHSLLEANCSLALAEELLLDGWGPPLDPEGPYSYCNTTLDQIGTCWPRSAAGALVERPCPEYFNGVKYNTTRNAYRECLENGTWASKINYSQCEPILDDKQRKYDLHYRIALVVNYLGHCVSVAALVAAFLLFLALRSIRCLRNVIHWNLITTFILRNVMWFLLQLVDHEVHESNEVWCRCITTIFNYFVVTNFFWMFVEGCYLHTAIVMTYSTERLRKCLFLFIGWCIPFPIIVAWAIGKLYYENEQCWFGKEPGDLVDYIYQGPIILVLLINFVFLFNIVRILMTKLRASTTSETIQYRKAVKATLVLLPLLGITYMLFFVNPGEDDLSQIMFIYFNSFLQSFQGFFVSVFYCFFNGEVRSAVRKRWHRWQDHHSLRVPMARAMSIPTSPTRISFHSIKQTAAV
T3 sequence (P24387 whole entry): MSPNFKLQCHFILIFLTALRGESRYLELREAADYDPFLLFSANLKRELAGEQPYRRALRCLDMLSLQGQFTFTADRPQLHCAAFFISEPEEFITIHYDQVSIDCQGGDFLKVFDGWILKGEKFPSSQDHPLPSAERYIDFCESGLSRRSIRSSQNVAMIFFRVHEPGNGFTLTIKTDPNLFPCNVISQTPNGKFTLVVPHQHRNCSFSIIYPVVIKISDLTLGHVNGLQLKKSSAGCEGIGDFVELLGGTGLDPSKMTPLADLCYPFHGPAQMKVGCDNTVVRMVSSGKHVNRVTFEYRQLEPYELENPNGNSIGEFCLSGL

[14] = target: T4, Kappa-type opioid receptor (Homo sapiens, UniProt P41145); type: functional
T4 sequence (P41145 whole entry): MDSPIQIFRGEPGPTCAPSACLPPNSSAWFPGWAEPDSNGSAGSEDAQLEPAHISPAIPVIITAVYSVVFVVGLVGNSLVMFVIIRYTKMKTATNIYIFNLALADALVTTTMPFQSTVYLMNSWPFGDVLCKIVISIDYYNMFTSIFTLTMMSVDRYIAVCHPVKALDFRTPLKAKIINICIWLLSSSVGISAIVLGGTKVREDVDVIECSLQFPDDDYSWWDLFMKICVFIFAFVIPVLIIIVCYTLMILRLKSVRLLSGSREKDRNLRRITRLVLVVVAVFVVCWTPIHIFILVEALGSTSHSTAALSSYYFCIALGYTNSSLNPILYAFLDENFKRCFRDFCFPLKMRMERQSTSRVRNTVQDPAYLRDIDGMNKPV

[15] = target: T4, Kappa-type opioid receptor; type: functional; remark: listed apart in the source
[16] = general mammalian cell viability loss – inhibitor set, cherry-pick, set 2, cytotoxicity control for miR-122 modulator project, dose response (AID 720697); type: functional, cell-based
INS1 = assay: INS-1E survival protection against cytokine death – cell-based, luminescence, retest, dose response (AID 449756); type: functional; details: Rattus norvegicus;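 also: cell death triggered by IL-1 beta plus TNF-alpha plus IFN-gamma mixture; protective hits raise ATP signal compared with cytokine alone wells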
[17] = activation of miR-122 Renilla sensor silencing – cell-based, Huh7 psiCHECK-miR122, Renilla luciferase, cherry-picked, dose response (AID 651956); type: functional;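 also: huh7 hepatoma cells stably carrying a psiCHECK-2 miR-122 sensor plasmid; renilla luciferase signal reporting endogenous miR-122 activity after 48 h compound exposure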
Beta-galactosidase [18] = target: T5, Beta-galactosidase (Escherichia coli, UniProt Q8VNN2); type: functional
T5 sequence (Q8VNN2 whole entry): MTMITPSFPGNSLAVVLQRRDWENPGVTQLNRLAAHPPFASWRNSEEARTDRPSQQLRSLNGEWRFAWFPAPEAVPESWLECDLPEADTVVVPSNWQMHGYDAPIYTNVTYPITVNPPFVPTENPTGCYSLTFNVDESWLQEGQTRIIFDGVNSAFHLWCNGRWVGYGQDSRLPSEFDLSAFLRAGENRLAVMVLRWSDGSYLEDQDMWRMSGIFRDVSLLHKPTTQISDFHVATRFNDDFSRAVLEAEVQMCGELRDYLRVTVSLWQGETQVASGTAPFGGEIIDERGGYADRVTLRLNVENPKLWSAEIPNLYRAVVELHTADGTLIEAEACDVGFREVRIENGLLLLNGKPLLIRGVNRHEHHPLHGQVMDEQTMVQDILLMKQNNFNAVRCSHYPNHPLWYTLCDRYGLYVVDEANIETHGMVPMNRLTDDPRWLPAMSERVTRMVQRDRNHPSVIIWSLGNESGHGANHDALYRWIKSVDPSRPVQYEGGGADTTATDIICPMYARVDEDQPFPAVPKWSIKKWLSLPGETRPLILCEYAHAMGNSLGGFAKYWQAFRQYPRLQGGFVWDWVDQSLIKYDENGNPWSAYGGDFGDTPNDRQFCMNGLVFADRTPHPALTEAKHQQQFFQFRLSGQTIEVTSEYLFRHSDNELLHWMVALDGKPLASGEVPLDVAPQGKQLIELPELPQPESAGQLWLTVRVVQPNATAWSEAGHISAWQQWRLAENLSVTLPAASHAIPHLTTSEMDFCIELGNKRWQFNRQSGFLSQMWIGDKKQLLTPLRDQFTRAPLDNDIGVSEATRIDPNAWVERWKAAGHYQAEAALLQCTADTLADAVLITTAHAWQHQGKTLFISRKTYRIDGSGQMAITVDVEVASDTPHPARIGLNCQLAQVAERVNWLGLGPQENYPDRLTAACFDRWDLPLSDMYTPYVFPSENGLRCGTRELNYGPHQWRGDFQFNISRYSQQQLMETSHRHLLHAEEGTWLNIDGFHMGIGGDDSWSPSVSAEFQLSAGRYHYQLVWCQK

Beta-galactosidase [19] = target: T5, Beta-galactosidase; assay: PubChem AID 485352; type: functional
Protein RecA = target: T6, Protein RecA (Mycobacterium tuberculosis, UniProt P9WHJ3); assay: Fluorescence Cell-Free Homogeneous Dose Retest to Identify Inhibitors of RecA-Intein Splicing Activity. [Related pubchem assays (depositor defined):AID2097, AID2223, AID489010, AID492950]; type: functional
T6 sequence (P9WHJ3 whole entry): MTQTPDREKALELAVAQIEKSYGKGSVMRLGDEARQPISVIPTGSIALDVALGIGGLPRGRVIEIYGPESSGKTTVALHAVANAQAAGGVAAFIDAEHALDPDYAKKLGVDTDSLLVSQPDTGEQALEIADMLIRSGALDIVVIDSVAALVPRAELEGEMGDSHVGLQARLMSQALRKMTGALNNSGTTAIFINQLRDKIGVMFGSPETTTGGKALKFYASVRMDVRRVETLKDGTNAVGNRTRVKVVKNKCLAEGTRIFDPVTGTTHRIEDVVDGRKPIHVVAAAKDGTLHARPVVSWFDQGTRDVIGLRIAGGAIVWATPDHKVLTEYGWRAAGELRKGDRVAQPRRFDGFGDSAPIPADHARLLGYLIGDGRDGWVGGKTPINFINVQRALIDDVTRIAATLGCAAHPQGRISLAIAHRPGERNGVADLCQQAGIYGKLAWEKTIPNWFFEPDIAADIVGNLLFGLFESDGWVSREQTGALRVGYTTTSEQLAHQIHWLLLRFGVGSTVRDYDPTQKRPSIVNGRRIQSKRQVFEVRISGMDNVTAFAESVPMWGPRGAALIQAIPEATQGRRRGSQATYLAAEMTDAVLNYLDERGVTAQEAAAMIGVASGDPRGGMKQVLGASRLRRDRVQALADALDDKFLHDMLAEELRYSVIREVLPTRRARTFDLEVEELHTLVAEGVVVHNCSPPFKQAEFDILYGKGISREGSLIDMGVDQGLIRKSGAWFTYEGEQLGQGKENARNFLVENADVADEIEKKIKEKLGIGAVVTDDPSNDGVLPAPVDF

[20] = general mammalian cell viability loss – activator set, cherry-pick, cytotoxicity control for miR-122 modulator project, dose response (AID 720690); type: functional, cell-based;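 also: HEK293T human cells scored for general mammalian cytotoxicity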
Beta Lactamase = Beta Lactamase (Pseudomonas aeruginosa, UniProt Q932Y6); assay: BLA reporter interference, concentration series – BLA reporter cells, FRET fluorescence, artefact control for TLR9-MyD88 binding inhibitor project, dose response (AID 588341); type: cell-based;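 also: cell based assay in CHO-K1 cells stably expressing beta-lactamase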
Beta Lactamase, sequence (Q932Y6 whole entry, the tested form may be a part): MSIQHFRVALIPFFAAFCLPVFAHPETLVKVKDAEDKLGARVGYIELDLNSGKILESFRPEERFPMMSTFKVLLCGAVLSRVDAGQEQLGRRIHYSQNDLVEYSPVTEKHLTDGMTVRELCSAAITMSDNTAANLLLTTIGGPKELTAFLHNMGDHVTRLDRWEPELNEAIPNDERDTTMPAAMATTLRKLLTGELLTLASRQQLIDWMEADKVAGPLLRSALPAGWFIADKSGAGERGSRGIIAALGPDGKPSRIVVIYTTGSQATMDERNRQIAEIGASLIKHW

CHO = CHO cell viability loss, potency – luminescence, cytotoxicity control for TLR9-MyD88 binding inhibitor project, dose response (AID 588339); type: functional, cell-based, hamster; details: Cricetulus griseus;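 also: CHO cells stably coexpressing TLR9 and MyD88 fusions from primary screen; compound exposure lasted 48 hours before viability readout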
[21] = target: T7, Type-1 angiotensin II receptor (Homo sapiens, UniProt P30556); assay: antagonism of angiotensin II type 1 receptor – cell-based, uHTS hits, selectivity assay for APJ receptor antagonist project, dose response (AID 463214); type: functional;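 also: antagonist potency against angiotensin II stimulated AT1 response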
T7 sequence (P30556 whole entry): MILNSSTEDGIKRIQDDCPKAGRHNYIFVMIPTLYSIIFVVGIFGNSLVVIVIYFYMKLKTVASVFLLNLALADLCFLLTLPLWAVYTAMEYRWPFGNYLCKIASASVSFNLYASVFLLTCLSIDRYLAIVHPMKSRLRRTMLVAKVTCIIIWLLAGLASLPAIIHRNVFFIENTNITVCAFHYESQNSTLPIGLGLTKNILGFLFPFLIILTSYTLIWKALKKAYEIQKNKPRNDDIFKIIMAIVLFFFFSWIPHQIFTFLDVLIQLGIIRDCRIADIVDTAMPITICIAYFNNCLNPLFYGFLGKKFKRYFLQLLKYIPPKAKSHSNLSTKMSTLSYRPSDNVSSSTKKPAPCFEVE

[22] = target: T8, Replicative DNA helicase DnaB (Mycobacterium tuberculosis, UniProt P9WMR3); assay: DnaB intein splicing inhibitors, dose response, biochemical, cell-free fluorescence (AID 449749); type: functional
T8 sequence (P9WMR3 whole entry): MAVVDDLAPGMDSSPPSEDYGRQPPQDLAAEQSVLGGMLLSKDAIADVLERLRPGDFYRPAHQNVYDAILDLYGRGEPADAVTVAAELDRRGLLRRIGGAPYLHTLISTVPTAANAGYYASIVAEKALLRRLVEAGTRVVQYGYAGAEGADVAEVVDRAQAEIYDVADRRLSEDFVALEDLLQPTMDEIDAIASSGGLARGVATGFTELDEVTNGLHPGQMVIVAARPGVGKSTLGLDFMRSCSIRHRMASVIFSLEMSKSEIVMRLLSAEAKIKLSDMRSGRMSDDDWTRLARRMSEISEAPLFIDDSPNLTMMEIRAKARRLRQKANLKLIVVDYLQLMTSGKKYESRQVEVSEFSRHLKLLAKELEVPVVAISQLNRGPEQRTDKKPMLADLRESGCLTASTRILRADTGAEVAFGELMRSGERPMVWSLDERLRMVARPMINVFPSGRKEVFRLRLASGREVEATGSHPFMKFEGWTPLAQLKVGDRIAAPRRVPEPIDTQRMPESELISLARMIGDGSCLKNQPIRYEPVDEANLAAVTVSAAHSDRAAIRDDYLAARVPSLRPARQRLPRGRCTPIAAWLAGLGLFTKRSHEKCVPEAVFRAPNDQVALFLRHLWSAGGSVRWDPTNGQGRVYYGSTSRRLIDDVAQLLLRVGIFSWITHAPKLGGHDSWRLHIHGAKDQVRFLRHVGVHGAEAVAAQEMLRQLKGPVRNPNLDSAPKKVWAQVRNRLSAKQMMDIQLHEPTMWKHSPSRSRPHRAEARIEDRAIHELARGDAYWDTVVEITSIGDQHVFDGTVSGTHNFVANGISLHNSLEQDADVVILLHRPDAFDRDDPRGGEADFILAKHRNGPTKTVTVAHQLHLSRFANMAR

With `O=C1CN(C(=O)Cn2ncc(Cl)c(Cl)c2=O)c2ccccc2N1` the AC50 [1] was 25.6 µM (active), the AC50 [2] was 8.59 µM (active) and the AC50 [3] was 8.67 µM (active). For the same compound, the AC50 [4] was 15.4 µM (active), the AC50 (Paired box protein Pax-8) was 2.19 µM (active) and the IC50 [5] was 13.6 µM (not active). For the same compound, the AC50 [6] was 11.8 µM (active), the AC50 [7] was 4.16 µM (active) and the EC50 [8] was 2.11 µM (active). For the same compound, the EC50 [9] was 2.61 µM (active), the IC50 [10] was 3.18 µM (active) and the AC50 [11] was 18.7 µM (active).
With `Cc1cccc(N2C(=O)C(O)=C(C(=O)c3cccs3)C2c2ccc(C(C)C)cc2)n1` (stereo unspecified) the IC50 (NS3) was 5.88 µM (active), the EC50 [12] was > 260 µM (inactive) and the EC50 [13] was 11.3 µM (active).
In the case of `CCn1c(Cl)c(C=O)s/c1=N\S(=O)(=O)c1ccccc1`, the pIC50 [14] was 5.31, the IC50 [15] was 11.8 µM (active) and the AC50 [16] was 1.84 µM (active). For the same compound, the AC50 (INS1) was 5.12 µM (active), the AC50 [17] was 7.8 µM (active) and the IC50 [5] was 7.5 µM (active). The EC50 (Beta-galactosidase [18]) was > 31.5 µM (inactive), the EC50 (Beta-galactosidase [19]) was > 40 µM (inactive) and the EC50 (Protein RecA) was 1.3 µM (active). For the same compound, the AC50 [20] was 3.2 µM (active), the EC50 [12] was > 260 µM (inconclusive) and the IC50 (Beta Lactamase) was 12.5 µM (inactive). For the same compound, the IC50 (CHO) was 0.952 µM (active), the IC50 [21] was 2.24 µM (active) and the IC50 [10] was 1.48 µM (active). For the same compound, the AC50 [22] was 18.2 µM (active).
